Like-named read-outs stand apart in the source and are kept apart here. Marks after values point to notes of the source that are not given here.
[1] = male rats, Group 2, 3 mg/kg/wk, Day 15, vs Group 1
[2] = male rats, Group 3, 3.75/2.5 mg/kg/wk oral, Day 15
[3] = male rats, Group 3, 3.75/2.5 mg/kg/wk, Day 15
[4] = male rats, Group 3, 3.75/2.5 mg/kg/wk, Day 15, vs Group 1
[5] = male rats, Group 4, 4.69/2 mg/kg/wk oral, Day 15, N 2, vs vehicle Group 1
[6] = male rats, Group 4, 4.69/2 mg/kg/wk, Day 15, vs Group 1

Compound: CCC1(O)C(=O)OCc2c1cc1n(c2=O)Cc2cc3cc4c(cc3nc2-1)OCO4 (stereo not drawn) [FL118]
- #EOS % Diff [1]: −43.40%
- #LYMP % Diff [1]: −13.38%
- #MONO % Diff [1]: −25.17%
- #NEUT % Diff [1]: −34.07%
- #RET % Diff [1]: 53.1%
- % BASO % Diff [1]: −8.3%
- % EOS % Diff [1]: −35.2%
- % LYMP % Diff [1]: 3.7%
- % MONO % Diff [1]: −6.6%
- % NEUT % Diff [1]: −24.1%
- % RET % Diff [1]: 62.09%
- HCT % Diff [1]: −8.0%
- HGB % Diff [1]: −8.9%
- MCHC % Diff [1]: −0.8%
- MCV % Diff [1]: −2.7%
- MPV % Diff [1]: −2.7%
- PLT % Diff [1]: 14%
- RDW % Diff [1]: 15.7%
- WBC % Diff [1]: −16.11%
- ALB, albumin, Mean [2]: 34.1 g/L
- ALP, alkaline phosphatase, Mean [2]: 113 U/L
- ALT, alanine aminotransferase, Mean [2]: 47 U/L
- AST, aspartate aminotransferase, Mean [2]: 104 U/L
- BIL-T, total bilirubin, Mean [2]: 1.83
- CK, creatine kinase, Mean [2]: 296 U/L
- CRE, creatinine, Mean [2]: 19 µmol/L
- Ca, calcium, Mean [2]: 2.41 mmol/L
- GLB, globulin, Mean [2]: 22.0 g/L
- K, potassium, Mean [2]: 5.0 mmol/L
- Na, sodium, Mean [2]: 143 mmol/L
- P, inorganic phosphorus, Mean [2]: 2.38 mmol/L
- TCHO, total cholesterol, Mean [2]: 1.73* mmol/L
- TG, triglyceride, Mean [2]: 0.33 mmol/L
- TP, total protein, Mean [2]: 56.1 g/L
- UREA, urea, Mean [2]: 5.60 mmol/L
- sGLU, glucose, Mean [2]: 10.18 mmol/L
- #BASO Mean [3]: 0.02 10^3/μL
- #EOS Mean [3]: 0.07 10^3/μL
- #LYMP Mean [3]: 8.02 10^3/μL
- #MONO Mean [3]: 0.23 10^3/μL
- #NEUT Mean [3]: 1.04 10^3/μL
- #RET Mean [3]: 342.9 10^9/L
- % BASO Mean [3]: 0.2%
- % EOS Mean [3]: 0.8%
- % LYMP Mean [3]: 84.7%
- % MONO Mean [3]: 2.4%
- % NEUT Mean [3]: 11.2%
- % RET Mean [3]: 4.74%
- HCT Mean [3]: 42.3* %
- HGB Mean [3]: 13.8** g/dL
- MCH Mean [3]: 19.0 pg
- MCHC Mean [3]: 32.6 g/dL
- MCV Mean [3]: 58.2 fL
- MPV Mean [3]: 6.5 fL
- PLT Mean [3]: 1129 10^3/μL
- RDW Mean [3]: 14.1*** %
- WBC Mean [3]: 9.43 10^3/μL
- #EOS % Diff [4]: −30.19%
- #LYMP % Diff [4]: −12.51%
- #MONO % Diff [4]: −18.88%
- #NEUT % Diff [4]: −4.40%
- #RET % Diff [4]: 55.7%
- % EOS % Diff [4]: −22.2%
- % LYMP % Diff [4]: −0.4%
- % MONO % Diff [4]: −10.3%
- % NEUT % Diff [4]: 7.9%
- % RET % Diff [4]: 64.10%
- HCT % Diff [4]: −7.5%
- HGB % Diff [4]: −8.6%
- MCHC % Diff [4]: −1.3%
- MCV % Diff [4]: −2.9%
- PLT % Diff [4]: 10%
- RDW % Diff [4]: 20.5%
- WBC % Diff [4]: −11.98%
- ALB, albumin, % Diff [5]: −28.9%
- ALP, alkaline phosphatase, % Diff [5]: −45%
- ALT, alanine aminotransferase, % Diff [5]: 27.5%
- AST, aspartate aminotransferase, % Diff [5]: 1.54%
- BIL-T, total bilirubin, % Diff [5]: 187.51%
- CK, creatine kinase, % Diff [5]: 13%
- CRE, creatinine, % Diff [5]: −3%
- Ca, calcium, % Diff [5]: −15.35%
- Cl, chloride, % Diff [5]: −3%
- K, potassium, % Diff [5]: 2.6%
- Na, sodium, % Diff [5]: −1%
- P, inorganic phosphorus, % Diff [5]: −13.59%
- TCHO, total cholesterol, % Diff [5]: 9.81%
- TG, triglyceride, % Diff [5]: 52.32%
- TP, total protein, % Diff [5]: −33.1%
- UREA, urea, % Diff [5]: 71.64%
- sGLU, glucose, % Diff [5]: −50.96%
- #BASO % Diff [6]: −58.33%
- #EOS % Diff [6]: −95.28%
- #LYMP % Diff [6]: −57.17%
- #MONO % Diff [6]: −0.35%
- #NEUT % Diff [6]: −19.87%
- #RET % Diff [6]: −87.2%
- % BASO % Diff [6]: −37.5%
- % EOS % Diff [6]: −95.4%
- % LYMP % Diff [6]: −11.9%
- % MONO % Diff [6]: 76.5%
- % NEUT % Diff [6]: 88.7%
- % RET % Diff [6]: −87.53%
- HCT % Diff [6]: 1.7%
- HGB % Diff [6]: 7.1%
- MCHC % Diff [6]: 5.4%
- MCV % Diff [6]: −6.8%
- MPV % Diff [6]: −5.3%
- PLT % Diff [6]: −11%
- RBC % Diff [6]: 8.98%
- RDW % Diff [6]: 4.3%
- WBC % Diff [6]: −52.17%
- NOAEL, females (oral, once weekly): 3 mg/kg/wk
- NOAEL, males (oral, once weekly): 2 mg/kg/wk
